# Measured values reported in patent US20210282401A1, “FUNGICIDAL COMPOUNDS AND MIXTURES FOR FUNGAL CONTROL IN CEREALS” (Dow AgroSciences LLC, priority 2016, published 2021).
# What was measured:
# Format in all cases: in vivo
# [1] = tested on: Puccinia recondita (PUCCRT); assay: Field assessment of brown rust of wheat (PUCCRT), relative AUDPC, 2 field trials; details: based on AUDPC
# Text: (§1) Treatments consisting of the compound of Formula I and the fungicide picoxystrobin were applied either using individually or as a two-way mixture with the compound of Formula I. The compound of Formula I was applied with Agnique BP-420 (50% w/w at 0.3% v/v) at 75 and 150 g ai/ha and picoxystrobin (Acanto) was applied at 125 and 200 g ai/ha. The commercial standard used in the studies was Fluxapyroxad (Imtrex) and was applied at 100 g ai/ha.
# Field Assessment of Puccinia recondita (PUCCRT) in Wheat:
# Fungicidal treatment containing the compound of Formula I and picoxystrobin, either individually or as a two mixture, were assessed against brown rust of wheat (PUCCRT) in two separate field trials. In the first trial, fungicidal treatments were applied at B37-39 (protectant, approximately 0% infection at application) growth stage of wheat (TRZAW, MV Vanek variety) under natural infection of brown rust. The treatment was part of an experimental trial designed as a randomized complete block with four replications and a plot of approximately 2×3 m. Fungicidal treatments were applied at a water volume of 200 L/ha, using a backpack plot sprayer with a TEEJET QJ90-2XTT110 015 Nozzle.
# In the second trial, fungicidal treatments containing the compound of Formula I and picoxystrobin, either individually or as a two way mixture, were applied at B33 (curative, approximately 6.6% infection at application) growth stage of wheat (TRZAW, Miradoux variety) under natural infection of brown rust. The treatments were part of an experimental trial designed as a randomized complete block with four replications and a plot of approximately 2×3 m. Fungicidal treatments were applied at a water volume of 200 L/ha, using a backpack plot sprayer with a HARDI MD110-02 Nozzle.
# (§2) Disease severity (percentage of visual diseased foliage on whole plot or leaves) in both field trials was assessed at 5 weeks after application and was recorded following EPPO PP1/26 guideline prescriptions. Area under the disease progress curve (AUDPC) was calculated for each plot in both trials using the sets of recorded severity data. Relative AUDPC (% control based on AUDPC) was calculated as percent of the nontreated control. Final results for the control of brown rust of wheat by the compound of Formula I, picoxystrobin, and mixtures are reported as an average of the relative AUDPC calculated over both field trials. Statistical analysis was done according to ANOVA and Tukey's test (p=0.10).
# [2] = tested on: Rhynchosporium secalis (RHYNSE); assay: Field assessment of scald of barley (RHYNSE), trials 2 and 3, relative AUDPC; details: Trial 2, 3, based on AUDPC
# Text: (§3) Field Assessment of Mixtures of the Compound of Formula I and Pyraclostrobin on Rhynchosporium secalis (RHYNSE) in Barley:
# In the remaining trials, treatments consisting of the compound of Formula I and the fungicide pyraclostrobin were applied either using individually or as a two-way mixture with the compound of Formula I. […] Commercial standards used in these studies were SiltraXpro (200 g ai/L prothioconazole+60 g ai/ha bixafen) applied at 260 g ai/ha, and Opera (133 g/L pyraclostrobin+50 g/L epoxiconazole) applied at 220 g ai/ha. All treatments were part of an experimental trial designed as a randomized complete block with four replications.
# (§4) Disease severity (percentage of visual diseased foliage on whole plot or leaves) in both trials was recorded following EPPO PP1/26 guideline prescriptions. Area under the disease progress curve (AUDPC) was calculated for each plot in both trials using the sets of recorded severity data. Relative AUDPC (% control based on AUDPC) was calculated as percent of the nontreated control. Final results for the control of scald of barley by the compound of Formula I, pyraclostrobin and mixtures are reported as an average of the relative AUDPC calculated over both field trials. Statistical analysis was done according to ANOVA and Tukey's test (p=0.10).
# Puccinia hordei (PUCCHD) = assay: Field assessment of rust of barley (PUCCHD), relative AUDPC, 2 field trials; details: based on AUDPC
# Text: Treatments consisting of the compound of Formula I and the fungicide pyraclostrobin were applied either using individually or as a two-way mixture with the compound of Formula I. The compound of Formula I was applied with Agnique BP-420 (50% w/w at an active:adjuvant ratio of 1:2) at 75, 100 and 150 g ai/ha and with pyraclostrobin (Comet 200) at 100, 150 and 200 g ai/ha. Commercial standards used in these studies were Proline 275 (275 g ai/L Prothioconazole), applied at 150 g ai/ha, and SiltraXpro (200 g ai/L prothioconazole+60 g ai/ha bixafen), applied at 195 g ai/ha.
# Field Assessment of Mixtures of the Compound of Formula I and Pyraclostrobin on Puccinia Hordie (PUCCHD) in Barley: […]
# Fungicidal treatments containing the compound of Formula I and pyraclostrobin, either individually or as a two-way mixture, were assessed against rust of barley (PUCCHD) in two separate field trials. In both trials, fungicidal treatments were applied at B37-39 growth stages of winter barley (Lomeritt variety) under natural infection of barley rust. All treatments were part of an experimental trial designed as a randomized complete block with four replications.
# as §4, with “in both field trials was” for “in both trials was”, “control of rust of barley” for “control of scald of barley”
# [3] = tested on: Pyrenophora teres (PYRNTE); assay: Field assessment of net blotch of barley (PYRNTE), relative AUDPC; details: based on AUDPC
# Text: (§5) Commercial standards used in these studies were Proline 275 (275 g ai/L Prothioconazole), applied at 150 g ai/ha, and SiltraXpro (200 g ai/L prothioconazole+60 g ai/ha bixafen), applied at 195 g ai/ha.
# Field Assessment of Mixtures of the Compound of Formula I and Pyraclostrobin on Pyrenophora teres (PYRNTE) in Barley:
# […] […], fungicidal treatments were applied at B31-37 growth stages of winter barley and sprong barley (HORVW, Lomeritt variety; HORVS, Scarlett variety) under natural infection of net blotch (protectant tests, 1% infection on leaf 4 and 10% infection on leaf 6 at application). All treatments were part of an experimental trial designed as a randomized complete block with four replications.
# […] […] Relative AUDPC (% control based on AUDPC) was calculated as percent of the nontreated control. […] Statistical analysis was done according to ANOVA and Tukey's test (p=0.10).
# [4] = tested on: Rhynchosporium secalis (RHYNSE); assay: Field assessment of scald of barley (RHYNSE), trial 1, relative AUDPC; details: Trial 1, based on AUDPC
# Protocol: as §5, §3
# Fungicidal treatments containing the compound of Formula I and fluxapyroxad, either individually or as a two-way mixture, were assessed against scald of barley (RHYNSE) in three field trials. In the first trial, fungicidal treatments were applied at B37-39 growth stages of winter barley (HORVW, Maris Otter variety) under natural infection of barley scald (protectant test, approximately 1% infection on leaf 4 at application). All treatments were part of an experimental trial designed as a randomized complete block with four replications.
# Disease severity (percentage of visual diseased foliage on whole plot or leaves) in the first trial was recorded following EPPO PP1/26 guideline prescriptions. Area under the disease progress curve (AUDPC) was calculated for each plot in the trial using the sets of recorded severity data. Relative AUDPC (% control based on AUDPC) was calculated as percent of the nontreated control. […] Statistical analysis was done according to ANOVA and Tukey's test (p=0.10).
# [5] = tested on: Puccinia striiformis (PUCCST); assay: Field assessment of yellow rust of wheat (PUCCST), relative AUDPC, 2 field trials; details: based on AUDPC
# Text: as §1
# Field Assessment of Puccinia striiformis (PUCCST) in Wheat:
# Fungicidal treatments containing the compound of Formula I and picoxystrobin, either individually or as a two way mixture, were assessed against yellow rust of wheat (PUCCST) in two separate field trials. […]
# as §2, with “4-7” for “5”, “yellow” for “brown”, “Statistical analysis was done according to ANOVA and Tukey's test (p=0.10).” left out
compound,measurement,setting,value
"N#Cc1ccc(Oc2ccc(C(F)(F)C(O)(Cn3ncnc3S)c3ccc(F)cc3F)nc2)cc1 (stereo not drawn) [Compound I, 4-((6-(2-(2,4-difluorophenyl)-1,1-difluoro-2-hydroxy-3-(5-mercapto-1H-1,2,4-triazol-1-yl)propyl)pyridin-3-yl)oxy)benzonitrile]",PUCCRT % Control,[1]; 75 g ai/ha,90.7%
same,PUCCRT % Control,[1]; 150 g ai/ha,91.4%
same,RHYNSE % Control,[2]; 80 g ai/ha,15.6%
same,RHYNSE % Control,[2]; 125 g ai/ha,38.6%
"COC(=O)N(OC)c1ccccc1COc1ccn(-c2ccc(Cl)cc2)n1 [Pyraclostrobin, methyl N-[2-[[[1-(4-chlorophenyl)-1H-pyrazol-3-yl]oxy]methyl]phenyl]-N-methoxycarbamate]",PUCCHD % Control,Puccinia hordei (PUCCHD); 100 g ai/ha,63.3%
same,PUCCHD % Control,Puccinia hordei (PUCCHD); 150 g ai/ha,64.4%
same,PUCCHD % Control,Puccinia hordei (PUCCHD); 200 g ai/ha,78.7%
same,PYRNTE % Control,[3]; 100 g ai/ha,46.5%
same,PYRNTE % Control,[3]; 150 g ai/ha,60.5%
same,PYRNTE % Control,[3]; 200 g ai/ha,69.8%
same,RHYNSE % Control,[2]; 200 g ai/ha,43.0%
same,RHYNSE % Control,[4]; 100 g ai/ha,41.2%
same,RHYNSE % Control,[4]; 150 g ai/ha,45.0%
same,RHYNSE % Control,[4]; 200 g ai/ha,47.8%
"CO/C=C(/C(=O)OC)c1ccccc1COc1cccc(C(F)(F)F)n1 [Picoxystrobin, methyl (E)-3-methoxy-2-[2-(6-trifluoromethyl-2-pyridyloxymethyl)phenyl]acrylate]",PUCCRT % Control,[1]; 125 g ai/ha,64.6%
same,PUCCRT % Control,[1]; 200 g ai/ha,81.1%
same,PUCCST % Control,[5]; 125 g ai/ha,34.6%
same,PUCCST % Control,[5]; 200 g ai/ha,43.2%
